Experimental data taken from paper PMC9305975 (Journal of the American Chemical Society, 2022).

Biological target: VcRibB (RibB, 3,4-dihydroxy-2-butanone 4-phosphate synthase) (Vibrio cholerae, UniProt Q9KKP2)
Settings: two Mn2+ in the active site; non-substrate analogue

Sequence of VcRibB (RibB, 3,4-dihydroxy-2-butanone 4-phosphate synthase) (Q9KKP2 whole entry): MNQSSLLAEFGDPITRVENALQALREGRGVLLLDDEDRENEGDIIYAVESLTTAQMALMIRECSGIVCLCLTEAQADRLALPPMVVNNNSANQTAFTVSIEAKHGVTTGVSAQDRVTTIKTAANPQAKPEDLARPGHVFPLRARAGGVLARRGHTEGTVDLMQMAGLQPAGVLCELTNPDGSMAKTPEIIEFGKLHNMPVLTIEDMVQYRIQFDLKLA

With O=C(CO)[C@H](O)[C@@H](O)COP(=O)(O)O [L-xylulose 5-phosphate] the “X-ray crystal structure; EPR” value was “L-xylulose 5-phosphate (L-Xy5P), showing two manganese ions and a significantly different, more twisted binding”.
